# Test results published in ChEMBL document CHEMBL5038635, “Discovery of Salidroside-Derivated Glycoside Analogues as Novel Angiogenesis Agents to Treat Diabetic Hind Limb Ischemia” (J Med Chem, 2022).
# Active and inactive are the calls of the source. The rule behind the calls is not given here.
# What was measured:
# [1] = Dissociation constant, pKa of compound by UV-visible spectrometric method; format: physicochemical
# C2C12 [2] = experiment: Induction of F-actin polymerization in mouse C2C12 cells at 30 uM pretreated with compound for 12 hr followed by hypoxic condition for 24 hrs by phalloidin staining based confocal microscopy; format: functional, cell-based; conditions: time 36.0 hrs
# C2C12 [3] = experiment: Reversal of hyperglycemia-induced VEGF-A protein level reduction in mouse C2C12 cells measured at 30 uM by ELISA; format: functional, cell-based
# MOVAS-1 [4] = experiment: Angiogenic activity in mouse MOVAS-1 cells assessed as suppression of F-actin polymerization at 30 uM using conditioned medium of mouse C2C12 cells treated at 30 uM under hyperglycemic condition for 12 hrs followed by hypoxia for 12 hrs by phalloidin staining based confocal microscopy; format: functional, cell-based; conditions: time 24.0 hrs
# C2C12 [5] = experiment: Induction of cell migration in mouse C2C12 cells at 30 uM under hyperglycemic condition incubated for 24 hrs by crystal violet dye based transwell chamber assay; format: functional
# C2C12 [6] = experiment: Reversal of hyperglycemia-induced PDGF-BB protein level reduction in mouse C2C12 cells measured at 30 uM by Western blot analysis; format: functional, cell-based
# Mus musculus [7] = experiment: Antidiabetic activity in diabetic HLI C57BL/6 mouse model assessed as effect on blood glucose level at 15 mg/kg administered intramuscular; format: functional, organism-based
# HUVEC [8] = experiment: Angiogenesis activity in human HUVEC cells assessed as suppression of cell migration using conditioned medium of mouse C2C12 cells treated at 30 uM under hyperglycemic condition for 12 hrs followed by hypoxia for 24 hrs by crystal violet dye based transwell assay; format: functional; conditions: time 36.0 hrs
# HUVEC [9] = experiment: Induction proliferation of human HUVEC cells assessed as increase in number of EdU-positive cells using conditioned medium of mouse C2C12 cells with silenced HIF-1alpha treated at 30 uM under hyperglycemic condition for 12 hrs followed by hypoxia for 24 hrs by EdU-incorporation assay; format: functional, cell-based; conditions: time 36.0 hrs
# Mus musculus [10] = experiment: Antidiabetic activity in diabetic HLI C57BL/6 mouse model assessed as morphological changes at 100 mg/kg administered intramuscularly; format: functional, organism-based
# [11] = Permeability coefficient across apical to basolateral side in human Caco-2 cells by HPLC-UV analysis
# MOVAS-1 [12] = experiment: Angiogenesis activity in mouse MOVAS-1 assessed as increase of cell migration using conditioned medium of mouse C2C12 cells with silenced HIF-1alpha treated at 30 uM under hyperglycemic condition for 12 hrs followed by hypoxia for 24 hrs by crystal violet dye based transwell assay; format: functional; conditions: time 36.0 hrs
# Mus musculus [13] = experiment: Angiogenesis activity in diabetic HLI C57BL/6 mouse model assessed as VEGF-A protein expression at 100 mg/kg, im administered for 21 days followed by surgery by Western blot analysis; format: functional, organism-based; conditions: time 21.0 day
# HUVEC [14] = experiment: Induction proliferation of human HUVEC cells assessed as increase in number of EdU-positive cells using conditioned medium of mouse C2C12 cells treated at 30 uM under hyperglycemic condition for 12 hrs followed by hypoxia for 24 hrs by EdU-incorporation assay; format: functional; conditions: time 36.0 hrs
# MOVAS-1 [15] = experiment: Induction proliferation of mouse MOVAS-1 assessed as increase in number of EdU-positive cells using conditioned medium of mouse C2C12 cells with silenced HIF-1alpha treated at 30 uM under hyperglycemic condition for 12 hrs followed by hypoxia for 24 hrs by EdU-incorporation assay; format: functional, cell-based; conditions: time 36.0 hrs
# [16] = Octanol/Water partition coefficient, log P of the compound by HPLC-UV analysis
# [17] = Permeability coefficient across basolateral to apical side in human Caco-2 cells by HPLC-UV analysis
# [18] = Microsomal stability in rat liver microsomes assessed as compound remaining after 30 min by HPLC analysis; format: ADME, Microsome; conditions: read-out: Stability
# Mus musculus [19] = experiment: Angiogenesis activity in diabetic HLI C57BL/6 mouse model assessed as HIF-1alpha protein expression at 100 mg/kg, im administered for 21 days followed by surgery by Western blot analysis; format: functional, organism-based; conditions: time 21.0 day
# [20] = Metabolic stability in rat leg muscle homogenates assessed as compound remaining after 30 min by HPLC analysis; format: ADME, tissue-based, muscle of leg; conditions: read-out: Stability
# HUVEC [21] = experiment: Angiogenic activity in human HUVEC cells assessed as suppression of F-actin polymerization at 30 uM using conditioned medium of mouse C2C12 cells treated at 30 uM under hyperglycemic condition for 12 hrs followed by hypoxia for 12 hrs by phalloidin staining based confocal microscopy; format: functional, cell-based; conditions: time 24.0 hrs
# Mus musculus [22] = experiment: Antidiabetic activity in diabetic HLI C57BL/6 mouse model assessed as increase in blood perfusion recovery at 100 mg/kg administered intramuscularly; format: functional, organism-based
# MOVAS-1 [23] = experiment: Angiogenesis activity in mouse MOVAS-1 cells assessed as suppression of cell migration using conditioned medium of mouse C2C12 cells treated at 30 uM under hyperglycemic condition for 12 hrs followed by hypoxia for 24 hrs by crystal violet dye based transwell assay; format: functional; conditions: time 36.0 hrs
# MOVAS-1 [24] = experiment: Induction proliferation of mouse MOVAS-1 cells assessed as increase in number of EdU-positive cells using conditioned medium of mouse C2C12 cells treated at 30 uM under hyperglycemic condition for 12 hrs followed by hypoxia for 24 hrs by EdU-incorporation assay; format: functional; conditions: time 36.0 hrs
# C2C12 [25] = experiment: Reversal of hyperglycemia-induced VEGF-A protein level reduction in mouse C2C12 cells measured at 30 uM by Western blot analysis; format: functional, cell-based
# [26] = Stability in rat plasma assessed as compound remaining at 6.25 to 25 mg/L after 12 hrs by HPLC analysis; format: ADME, cell-free; conditions: at 6.25 to 25 µg/mL, dose 6.25-25 mg/L, read-out: Stability
# [27] = Efflux ratio of Apparent permeability across basolateral to apical side over apical to basolateral side in human Caco-2 cells
# [28] = Protein binding in human plasma by balanced dialysis method; format: ADME, cell-free; conditions: read-out: PPB (converted)
# C2C12 [29] = experiment: Reversal of hyperglycemia-induced PDGF-BB protein level reduction in mouse C2C12 cells measured at 30 uM by ELISA; format: functional, cell-based
# Mus musculus [30] = experiment: Angiogenesis activity in diabetic HLI C57BL/6 mouse model assessed as PDGF-BB protein expression at 100 mg/kg, im administered for 21 days followed by surgery by Western blot analysis; format: functional, organism-based; conditions: time 21.0 day
# [31] = Water solubility of the compound by HPLC analysis
# HUVEC [32] = experiment: Angiogenesis activity in human HUVEC cells assessed as increase of cell migration using conditioned medium of mouse C2C12 cells with silenced HIF-1alpha treated at 30 uM under hyperglycemic condition for 12 hrs followed by hypoxia for 24 hrs by crystal violet dye based transwell assay; format: functional; conditions: time 36.0 hrs
structure (smiles),measurement,setting,value
OC[C@H]1O[C@@H](OCCc2ccc(O)cc2)[C@H](O)[C@@H](O)[C@@H]1O [SALIDROSIDE],pKa,[1],10.1
same,Activity,C2C12 [2],Active
same,Activity,C2C12 [3],Active
same,Activity,MOVAS-1 [4],inactive
same,Activity,C2C12 [5],Active
same,Activity,C2C12 [6],Active
same,Activity,Mus musculus [7],Active
same,Activity,HUVEC [8],inactive
same,Activity,HUVEC [9],Active
same,Activity,Mus musculus [10],Active
same,Papp A→B,[11],2.71 ×10⁻⁶ cm/s
same,Activity,MOVAS-1 [12],Active
same,Activity,Mus musculus [13],Active
same,Activity,HUVEC [14],Active
same,Activity,MOVAS-1 [15],Active
same,logP,[16],-2.42
same,Papp B→A,[17],2.95 ×10⁻⁶ cm/s
same,remaining at 0.5 h,[18],43.3%
same,Activity,Mus musculus [19],Active
same,remaining at 0.5 h,[20],35.8%
same,Activity,HUVEC [21],inactive
same,Activity,Mus musculus [22],Active
same,Activity,MOVAS-1 [23],inactive
same,Activity,MOVAS-1 [24],Active
same,Activity,C2C12 [25],Active
same,remaining at 12 h,[26],99.4%
same,efflux ratio,[27],1.09
same,fraction unbound,[28],0.873
same,Activity,C2C12 [29],Active
same,Activity,Mus musculus [30],Active
same,solubility,[31],472 mg/mL
same,Activity,HUVEC [32],Active
